According to the NIST ThermoML archive (doi:10.1016/j.jct.2018.08.013):
Several values for one entry are separate records, joined by “and”; a condition that tells them apart may be missing. Equal entries are not always repeated.

Assays:
[1] = xn = mol fraction of the nth substance listed; details: 298 K; 100 kPa; Crystal of intercomponent compound 1; X-ray diffraction; x2 = 0.493
[2] = specific heat capacity at constant pressure; xn = mol fraction of the nth substance listed; details: 100 kPa, Crystal of intercomponent compound 1, x2 = 0.493

[S] [sulfur] + [Ga]
Details | mass density [kg/m3]
[1] | 3910

[2]
Details | specific heat capacity
18.16 K, relaxation calorimetry | 12.05 J/K/kg
18.18 K, relaxation calorimetry | 12.12 J/K/kg
20.17 K, relaxation calorimetry | 16.52 J/K/kg
20.2 K, relaxation calorimetry | 16.6 J/K/kg
22.19 K, relaxation calorimetry | 21.61 J/K/kg
22.22 K, relaxation calorimetry | 21.71 J/K/kg and 21.72 J/K/kg
24.21 K, relaxation calorimetry | 27.33 J/K/kg
24.24 K, relaxation calorimetry | 27.43 J/K/kg and 27.44 J/K/kg
26.24 K, relaxation calorimetry | 33.49 J/K/kg
26.26 K, relaxation calorimetry | 33.58 J/K/kg
28.24 K, relaxation calorimetry | 39.83 J/K/kg
28.26 K, relaxation calorimetry | 39.94 J/K/kg
28.27 K, relaxation calorimetry | 39.95 J/K/kg
30.29 K, relaxation calorimetry | 46.52 J/K/kg and 46.51 J/K/kg
35.28 K, relaxation calorimetry | 63.34 J/K/kg
35.34 K, relaxation calorimetry | 63.61 J/K/kg and 63.51 J/K/kg
40.32 K, relaxation calorimetry | 80.08 J/K/kg
40.39 K, relaxation calorimetry | 80.21 J/K/kg
40.4 K, relaxation calorimetry | 80.32 J/K/kg
45.38 K, relaxation calorimetry | 96.1 J/K/kg
45.44 K, relaxation calorimetry | 96.06 J/K/kg
45.46 K, relaxation calorimetry | 96.26 J/K/kg
50.44 K, relaxation calorimetry | 111.7 J/K/kg
50.47 K, relaxation calorimetry | 111.6 J/K/kg
50.51 K, relaxation calorimetry | 111.7 J/K/kg
55.47 K, relaxation calorimetry | 126.24 J/K/kg
55.51 K, relaxation calorimetry | 125.95 J/K/kg
55.55 K, relaxation calorimetry | 126.24 J/K/kg
60.51 K, relaxation calorimetry | 140.09 J/K/kg
60.55 K, relaxation calorimetry | 139.99 J/K/kg
60.58 K, relaxation calorimetry | 139.99 J/K/kg
65.57 K, relaxation calorimetry | 154.14 J/K/kg
65.59 K, relaxation calorimetry | 154.04 J/K/kg
65.63 K, relaxation calorimetry | 154.04 J/K/kg
70.62 K, relaxation calorimetry | 167.6 J/K/kg
70.63 K, relaxation calorimetry | 167.6 J/K/kg
70.66 K, relaxation calorimetry | 167.5 J/K/kg
75.65 K, relaxation calorimetry | 180.57 J/K/kg
75.68 K, relaxation calorimetry | 180.86 J/K/kg
75.7 K, relaxation calorimetry | 180.47 J/K/kg
80.7 K, relaxation calorimetry | 194.32 J/K/kg
80.73 K, relaxation calorimetry | 194.42 J/K/kg
80.74 K, relaxation calorimetry | 194.32 J/K/kg
85.74 K, relaxation calorimetry | 207.39 J/K/kg
85.77 K, relaxation calorimetry | 207.39 J/K/kg
85.78 K, relaxation calorimetry | 207.39 J/K/kg
90.77 K, relaxation calorimetry | 220.55 J/K/kg
90.8 K, relaxation calorimetry | 220.26 J/K/kg and 220.45 J/K/kg
95.75 K, relaxation calorimetry | 232.24 J/K/kg
95.79 K, relaxation calorimetry | 231.95 J/K/kg
95.82 K, relaxation calorimetry | 231.85 J/K/kg
100.8 K, relaxation calorimetry | 243.64 J/K/kg
100.86 K, relaxation calorimetry | 242.85 J/K/kg
100.91 K, relaxation calorimetry | 243.05 J/K/kg
106.88 K, relaxation calorimetry | 257.1 J/K/kg and 257.39 J/K/kg
107.03 K, relaxation calorimetry | 256.21 J/K/kg
113.66 K, relaxation calorimetry | 272.42 J/K/kg
113.82 K, relaxation calorimetry | 273.11 J/K/kg
113.94 K, relaxation calorimetry | 271.54 J/K/kg
120.64 K, relaxation calorimetry | 286.47 J/K/kg
120.83 K, relaxation calorimetry | 286.96 J/K/kg
120.89 K, relaxation calorimetry | 285.1 J/K/kg
127.82 K, relaxation calorimetry | 298.56 J/K/kg
127.84 K, relaxation calorimetry | 298.36 J/K/kg
134.78 K, relaxation calorimetry | 310.93 J/K/kg
134.8 K, relaxation calorimetry | 310.34 J/K/kg
134.81 K, relaxation calorimetry | 310.25 J/K/kg
141.61 K, relaxation calorimetry | 324 J/K/kg
141.75 K, relaxation calorimetry | 322.43 J/K/kg
141.83 K, relaxation calorimetry | 321.94 J/K/kg
148.61 K, relaxation calorimetry | 333.53 J/K/kg
148.72 K, relaxation calorimetry | 332.15 J/K/kg
148.84 K, relaxation calorimetry | 330.48 J/K/kg
155.54 K, relaxation calorimetry | 342.37 J/K/kg
155.64 K, relaxation calorimetry | 340.7 J/K/kg
155.72 K, relaxation calorimetry | 339.33 J/K/kg
162.61 K, relaxation calorimetry | 350.82 J/K/kg
162.66 K, relaxation calorimetry | 349.74 J/K/kg
162.73 K, relaxation calorimetry | 349.64 J/K/kg
169.57 K, relaxation calorimetry | 360.25 J/K/kg
169.65 K, relaxation calorimetry | 358.19 J/K/kg
169.72 K, relaxation calorimetry | 359.07 J/K/kg
176.58 K, relaxation calorimetry | 367.72 J/K/kg
176.67 K, relaxation calorimetry | 367.72 J/K/kg
176.69 K, relaxation calorimetry | 362.51 J/K/kg
183.46 K, relaxation calorimetry | 377.05 J/K/kg
183.56 K, relaxation calorimetry | 375.87 J/K/kg
183.6 K, relaxation calorimetry | 370.67 J/K/kg
190.49 K, relaxation calorimetry | 383.83 J/K/kg
190.59 K, relaxation calorimetry | 383.53 J/K/kg
190.65 K, relaxation calorimetry | 378.13 J/K/kg
197.48 K, relaxation calorimetry | 388.94 J/K/kg
197.53 K, relaxation calorimetry | 389.63 J/K/kg
197.63 K, relaxation calorimetry | 385.2 J/K/kg
204.39 K, relaxation calorimetry | 394.64 J/K/kg
204.41 K, relaxation calorimetry | 396.21 J/K/kg
204.53 K, relaxation calorimetry | 392.18 J/K/kg
211.42 K, relaxation calorimetry | 400.83 J/K/kg
211.46 K, relaxation calorimetry | 401.71 J/K/kg
211.56 K, relaxation calorimetry | 397.19 J/K/kg
218.3 K, relaxation calorimetry | 405.64 J/K/kg
218.34 K, relaxation calorimetry | 407.41 J/K/kg
218.45 K, relaxation calorimetry | 402.99 J/K/kg
225.38 K, relaxation calorimetry | 410.35 J/K/kg and 412.32 J/K/kg
225.51 K, relaxation calorimetry | 408.68 J/K/kg
232.24 K, relaxation calorimetry | 414.68 J/K/kg and 416.64 J/K/kg
232.38 K, relaxation calorimetry | 412.81 J/K/kg
239.31 K, relaxation calorimetry | 418.61 J/K/kg and 420.57 J/K/kg
239.44 K, relaxation calorimetry | 416.94 J/K/kg
246.17 K, relaxation calorimetry | 422.44 J/K/kg
246.31 K, relaxation calorimetry | 420.96 J/K/kg
253.25 K, relaxation calorimetry | 426.56 J/K/kg
253.26 K, relaxation calorimetry | 424.99 J/K/kg
253.37 K, relaxation calorimetry | 424.7 J/K/kg
260.11 K, relaxation calorimetry | 428.53 J/K/kg and 430.1 J/K/kg
260.22 K, relaxation calorimetry | 427.94 J/K/kg
260.51 K, Extra sensitive DSC | 429.81 J/K/kg
263.12 K, Extra sensitive DSC | 432.26 J/K/kg
265.73 K, Extra sensitive DSC | 432.66 J/K/kg
267.18 K, relaxation calorimetry | 432.16 J/K/kg and 433.25 J/K/kg
267.28 K, relaxation calorimetry | 431.28 J/K/kg
268.33 K, Extra sensitive DSC | 434.33 J/K/kg
270.07 K, Extra sensitive DSC | 435.41 J/K/kg
273.54 K, Extra sensitive DSC | 436.78 J/K/kg
274.03 K, relaxation calorimetry | 435.6 J/K/kg and 437.27 J/K/kg
274.12 K, relaxation calorimetry | 434.33 J/K/kg
276.15 K, Extra sensitive DSC | 437.37 J/K/kg
279.62 K, Extra sensitive DSC | 439.04 J/K/kg
281.12 K, relaxation calorimetry | 440.32 J/K/kg
281.13 K, relaxation calorimetry | 440.12 J/K/kg
281.19 K, relaxation calorimetry | 438.35 J/K/kg
283.09 K, Extra sensitive DSC | 440.42 J/K/kg
285.7 K, Extra sensitive DSC | 441.4 J/K/kg
287.94 K, relaxation calorimetry | 442.87 J/K/kg
287.95 K, relaxation calorimetry | 442.09 J/K/kg
288.02 K, relaxation calorimetry | 441.2 J/K/kg
289.17 K, Extra sensitive DSC | 442.77 J/K/kg
292.64 K, Extra sensitive DSC | 444.15 J/K/kg
295 K, relaxation calorimetry | 443.07 J/K/kg and 444.35 J/K/kg
295.08 K, relaxation calorimetry | 443.46 J/K/kg
295.25 K, Extra sensitive DSC | 444.64 J/K/kg
297.85 K, Extra sensitive DSC | 445.72 J/K/kg
300.45 K, Extra sensitive DSC | 446.61 J/K/kg
301.99 K, relaxation calorimetry | 450.73 J/K/kg
302 K, relaxation calorimetry | 450.83 J/K/kg
302.09 K, relaxation calorimetry | 445.23 J/K/kg
303.06 K, Extra sensitive DSC | 447.88 J/K/kg
305.66 K, Extra sensitive DSC | 448.77 J/K/kg
308.26 K, Extra sensitive DSC | 449.75 J/K/kg
310.87 K, Extra sensitive DSC | 450.44 J/K/kg
313.47 K, Extra sensitive DSC | 451.52 J/K/kg
315.21 K, Extra sensitive DSC | 452.11 J/K/kg
317.81 K, Extra sensitive DSC | 452.3 J/K/kg
320.41 K, Extra sensitive DSC | 453.09 J/K/kg
323.02 K, Extra sensitive DSC | 453.29 J/K/kg
325.62 K, Extra sensitive DSC | 454.17 J/K/kg
328.23 K, Extra sensitive DSC | 455.45 J/K/kg
329.96 K, Extra sensitive DSC | 455.35 J/K/kg
332.56 K, Extra sensitive DSC | 455.84 J/K/kg
335.17 K, Extra sensitive DSC | 456.53 J/K/kg
337.77 K, Extra sensitive DSC | 457.22 J/K/kg
340.38 K, Extra sensitive DSC | 458.2 J/K/kg
342.98 K, Extra sensitive DSC | 459.18 J/K/kg
345.58 K, Extra sensitive DSC | 459.28 J/K/kg
348.19 K, Extra sensitive DSC | 460.46 J/K/kg
350.79 K, Extra sensitive DSC | 461.15 J/K/kg
353.39 K, Extra sensitive DSC | 460.75 J/K/kg
356 K, Extra sensitive DSC | 461.93 J/K/kg
358.6 K, Extra sensitive DSC | 462.72 J/K/kg
